In patent US10759791B2, “Mammalian and bacterial nitric oxide synthase inhibitors” (Northwestern University, priority 2014, dated 2020):
Several values for one entry are separate records, joined by “and”; a condition that tells them apart may be missing. Equal values may be shown once. Read-outs that look alike come from different tables or passages of the source. Marks after values point to notes of the source that are not given here.

What was measured:
rat nNOS [1] = biological target: T1, rat nNOS (Rattus norvegicus (Rat), UniProt P29476); assay: Hemoglobin capture assay, Ki (Tables 11-12); settings: ratio of Ki values
human eNOS = human eNOS (Homo sapiens (Human), UniProt P29474); assay: Hemoglobin capture assay, Ki (Example 159); format: biochemical
rat nNOS [2] = biological target: T1, rat nNOS; assay: Hemoglobin capture assay, Ki (Example 159); format: biochemical; settings: for Selectivity n/i: rat nNOS vs murine iNOS
human nNOS [3] = biological target: T2, human nNOS (Homo sapiens (Human), UniProt P29475); assay: Hemoglobin capture assay, Ki (Example 159); format: biochemical
in vitro [4] = settings: human, pH 7.4
[5] = not given; remark: listed apart in the source
in vitro [6] = settings: human, microsomes, pH 7.4
CYP2C8 [7] = biological target: T3, CYP2C8 (Homo sapiens (Human), UniProt P10632); assay: in vitro; settings: microsomes, pH 7.4
T3 sequence (P10632 whole entry): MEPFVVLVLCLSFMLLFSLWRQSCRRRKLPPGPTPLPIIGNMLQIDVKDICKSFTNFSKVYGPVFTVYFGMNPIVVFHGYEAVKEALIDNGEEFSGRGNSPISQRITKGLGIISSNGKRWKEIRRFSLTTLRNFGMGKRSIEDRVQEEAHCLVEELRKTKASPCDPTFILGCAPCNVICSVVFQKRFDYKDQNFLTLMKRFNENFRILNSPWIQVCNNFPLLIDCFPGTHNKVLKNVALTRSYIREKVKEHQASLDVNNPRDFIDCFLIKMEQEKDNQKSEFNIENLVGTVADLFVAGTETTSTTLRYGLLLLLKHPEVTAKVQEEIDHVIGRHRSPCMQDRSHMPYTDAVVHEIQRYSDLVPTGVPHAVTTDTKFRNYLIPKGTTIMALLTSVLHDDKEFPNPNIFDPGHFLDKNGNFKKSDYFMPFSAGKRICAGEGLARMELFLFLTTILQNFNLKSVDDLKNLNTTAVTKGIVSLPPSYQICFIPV

CYP2B6 = CYP2B6 (Homo sapiens (Human), UniProt P20813); assay: in vitro; settings: microsomes, pH 7.4
CYP2D6 = CYP2D6 (Homo sapiens (Human), UniProt P10635); assay: CYP inhibition assay, human liver microsomes; settings: pH 7.4
CYP2D6, sequence (P10635 whole entry): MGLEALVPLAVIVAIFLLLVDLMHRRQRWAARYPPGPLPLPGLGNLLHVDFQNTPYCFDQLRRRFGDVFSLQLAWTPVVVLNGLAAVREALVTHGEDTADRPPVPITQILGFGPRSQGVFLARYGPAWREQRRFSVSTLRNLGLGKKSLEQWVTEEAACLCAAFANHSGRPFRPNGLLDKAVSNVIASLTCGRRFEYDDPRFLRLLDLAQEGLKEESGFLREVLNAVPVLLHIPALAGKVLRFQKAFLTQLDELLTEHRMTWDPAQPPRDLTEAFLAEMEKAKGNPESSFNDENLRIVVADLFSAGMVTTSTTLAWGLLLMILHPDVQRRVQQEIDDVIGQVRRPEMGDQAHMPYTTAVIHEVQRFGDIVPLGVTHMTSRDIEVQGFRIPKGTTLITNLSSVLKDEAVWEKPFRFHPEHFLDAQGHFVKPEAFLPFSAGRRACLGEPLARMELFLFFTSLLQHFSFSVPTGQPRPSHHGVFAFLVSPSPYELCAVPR

CYP2C9 = CYP2C9 (Homo sapiens (Human), UniProt P11712); assay: in vitro; settings: microsomes, pH 7.4
CYP2C9, sequence (P11712 whole entry): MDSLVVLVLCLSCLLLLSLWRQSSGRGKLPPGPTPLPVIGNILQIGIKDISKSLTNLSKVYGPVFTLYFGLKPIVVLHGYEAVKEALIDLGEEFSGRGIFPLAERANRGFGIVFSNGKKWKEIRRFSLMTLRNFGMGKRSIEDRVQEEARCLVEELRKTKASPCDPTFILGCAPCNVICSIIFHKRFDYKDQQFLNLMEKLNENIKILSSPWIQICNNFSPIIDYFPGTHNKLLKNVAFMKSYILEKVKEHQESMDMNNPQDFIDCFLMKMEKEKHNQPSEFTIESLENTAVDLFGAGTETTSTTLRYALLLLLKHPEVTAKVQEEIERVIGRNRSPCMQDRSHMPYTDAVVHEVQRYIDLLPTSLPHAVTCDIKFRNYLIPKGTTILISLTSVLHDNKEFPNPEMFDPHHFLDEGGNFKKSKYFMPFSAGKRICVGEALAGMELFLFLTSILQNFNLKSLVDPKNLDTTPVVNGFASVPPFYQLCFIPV

CYP1A2 = CYP1A2 (Homo sapiens (Human), UniProt P05177); assay: CYP inhibition assay, human liver microsomes
CYP1A2, sequence (P05177 whole entry): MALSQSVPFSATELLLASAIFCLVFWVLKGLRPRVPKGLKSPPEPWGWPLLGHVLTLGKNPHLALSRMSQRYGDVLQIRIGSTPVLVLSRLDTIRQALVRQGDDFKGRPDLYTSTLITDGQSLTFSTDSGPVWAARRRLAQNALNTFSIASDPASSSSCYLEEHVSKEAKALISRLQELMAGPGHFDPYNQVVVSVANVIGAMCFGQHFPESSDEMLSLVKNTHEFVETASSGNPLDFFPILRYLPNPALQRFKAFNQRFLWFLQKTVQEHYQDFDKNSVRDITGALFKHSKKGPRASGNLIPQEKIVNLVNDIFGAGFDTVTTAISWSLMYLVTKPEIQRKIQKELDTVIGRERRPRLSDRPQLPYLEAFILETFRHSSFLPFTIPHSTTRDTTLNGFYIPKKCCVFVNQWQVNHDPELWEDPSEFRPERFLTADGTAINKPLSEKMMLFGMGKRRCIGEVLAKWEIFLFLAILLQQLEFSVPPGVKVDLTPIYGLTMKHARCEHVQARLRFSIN

bovine eNOS = bovine eNOS (Bos taurus (Bovine), UniProt P29473); assay: Hemoglobin capture assay, Ki (Example 159); format: biochemical
S. aureus UAMS1182 = assay: Effect of H2O2 and NOS inhibitors on S. aureus; format: cell-based, Staphylococcus aureus; settings: for H2O2-mediated killing of S. aureus on co-treatment: 200 μM inhibitor + 5 mM H2O2; for S. aureus survival, inhibitor alone: 200 μM, WT and Δnos strains
bBiDomain = bBiDomain (Bacillus subtilis (strain 168), UniProt O34453); assay: bNOS activity inhibition with bBiDomain and YumC, nitrite by Griess reaction; settings: for % nitrite: inhibitor 30 μM, NOHA 200 μM, 4 min, single time point
bBiDomain, sequence (O34453 other isoform, or with tags, fused parts or gaps): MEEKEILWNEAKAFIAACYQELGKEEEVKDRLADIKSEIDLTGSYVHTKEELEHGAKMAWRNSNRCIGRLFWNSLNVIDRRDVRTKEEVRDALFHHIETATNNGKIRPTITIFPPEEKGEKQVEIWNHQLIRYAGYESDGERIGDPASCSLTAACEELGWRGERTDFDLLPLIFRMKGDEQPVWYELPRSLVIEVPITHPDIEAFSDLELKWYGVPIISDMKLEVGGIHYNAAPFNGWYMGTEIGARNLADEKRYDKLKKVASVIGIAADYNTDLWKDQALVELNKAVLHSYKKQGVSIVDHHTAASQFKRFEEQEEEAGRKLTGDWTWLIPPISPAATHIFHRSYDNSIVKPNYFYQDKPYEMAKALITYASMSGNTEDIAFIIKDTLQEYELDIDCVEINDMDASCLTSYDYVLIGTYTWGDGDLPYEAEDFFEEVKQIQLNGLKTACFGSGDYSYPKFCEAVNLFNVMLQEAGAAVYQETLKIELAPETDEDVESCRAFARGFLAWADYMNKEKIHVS

[8] = Plasma pharmacokinetics and brain distribution in mice; settings: for T1/2: i.v. 2 mg/kg
human nNOS [9] = biological target: T2, human nNOS; assay: Oxyhemoglobin NO assay, Ki (Table 9); format: biochemical
rat nNOS [10] = biological target: T1, rat nNOS; assay: Oxyhemoglobin NO assay, Ki (Table 9); format: biochemical; settings: for e/n: ratio Ki eNOS to Ki rat nNOS; for i/n: ratio Ki iNOS to Ki rat nNOS
B. subtilis = assay: Effect of oxidative stress (ACR, H2O2) and NOS inhibitors on B. subtilis survival and growth; format: cell-based, Bacillus subtilis
bsNOS = bsNOS (Bacillus subtilis (strain 168), UniProt O34453); assay: Imidazole displacement, spectral binding constant KS; settings: 50 μM H4B
bsNOS, sequence (O34453 whole entry): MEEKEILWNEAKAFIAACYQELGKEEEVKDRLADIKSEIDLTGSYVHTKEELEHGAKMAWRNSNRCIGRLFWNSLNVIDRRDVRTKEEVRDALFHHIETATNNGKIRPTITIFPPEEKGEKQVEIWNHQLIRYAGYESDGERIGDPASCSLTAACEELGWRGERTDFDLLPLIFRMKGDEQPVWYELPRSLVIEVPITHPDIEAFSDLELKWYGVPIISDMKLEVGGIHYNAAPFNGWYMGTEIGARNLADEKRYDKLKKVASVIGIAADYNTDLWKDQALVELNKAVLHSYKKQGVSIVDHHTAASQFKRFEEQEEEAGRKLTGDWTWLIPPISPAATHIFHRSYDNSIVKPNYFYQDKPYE

CYP2C8 [11] = biological target: T3, CYP2C8; settings: 10 μM
[12] = human, microsomes, 0 h, 1 μM, pH 7.4

## Cc1ccnc(CCc2cccc([C@H](N)Cc3cc(C)cc(N)n3)c2)c1 [Compound 5R, (R)-6-(2-Amino-2-(3-(2-(4-methylpyridin-2-yl)ethyl)phenyl)ethyl)-4-methylpyridin-2-amine]
Rat nNOS [1]
  e/n: 240
  i/n: >22

## Cc1ccnc(CCc2cccc([C@@H](N)Cc3cc(C)cc(N)n3)c2)c1 [Compound 5S, (S)-6-(2-Amino-2-(3-(2-(4-methylpyridin-2-yl)ethyl)phenyl)ethyl)-4-methylpyridin-2-amine]
Rat nNOS [1]
  e/n: 363
  i/n: >110

## Cc1cc(N)nc(CCc2cncc(N3CCOCC3)c2)c1 [Compound 14c, 4-Methyl-6-(2-(5-morpholinopyridin-3-yl)ethyl)pyridin-2-amine]
Human eNOS
  Ki: 42.6 µM
Rat nNOS [2]
  Ki: 547 nM
  Selectivity n/i: 21
Human nNOS [3]
  Ki: 862 nM
Human nNOS [3]; human nNOS vs human eNOS
  Selectivity n/e (human): 49

## COCCCNc1cncc(CCc2cc(C)cc(N)n2)c1 [Compound 14e, 6-(2-(5-(3-Methoxypropylamino)pyridin-3-yl)ethyl)-4-methylpyridin-2-amine]
Rat nNOS [2]
  Ki: 558 nM
  Selectivity n/i: 13

## CNCCCc1cncc(CCc2cc(C)cc(N)n2)c1 [Compound 14j, 4-Methyl-6-(2-(5-(3-(methylamino)propyl)pyridin-3-yl)ethyl)pyridin-2-amine]
1 μM
  % Remaining, 90 minutes (−NADPH): 78^b % and 78%
  CLh, int: 10.4 mL/min/kg
1 μM, heat inactivated microsomes minus NADPH
  % Remaining, 90 minutes (Buffer): 95^b % and 95%
1 μM, in 60 min in the absence of NADPH or in 90 min in the presence of NADPH
  % of the compound lost: 23%
[12]
  Percentage in HLM, Minus NADPH, 0 min: 100%
  Percentage in HLM, Plus NADPH, 0 min: 100%
human, microsomes, […], 1 μM, pH 7.4
  Percentage in HLM, Plus NADPH, 45 min: 87%
Minus NADPH (buffer control)
  Percentage in HLM, Heat inactivated microsomes, 0 min: 100%
In vitro [4]
  recovery at 4 h, 5 μM: 91%
[5]; 37° C.
  % compound remaining at 4 h: 90%
In vitro [6]
  half-life at 1 μM: > 60 min
CYP2C8 [7]
  inhibition at 10 µM: 2%
CYP2B6
  inhibition at 10 µM: 8%
CYP2D6
  inhibition at 10 min, 10 µM: 6%
CYP2C9
  inhibition at 10 min, 10 µM: 0%
CYP1A2; human, microsomes, pH 7.4
  inhibition at 10 min, 10 µM: 9%

## Cc1cc(N)nc(CCc2cncc(CCCN(C)C)c2)c1 [Compound 14k, 6-(2-(5-(3-(Dimethylamino)propyl)pyridin-3-yl)ethyl)-4-methylpyridin-2-amine]
Bovine eNOS
  Ki: 16.6 µM
Human eNOS
  Ki: 39.5 µM
Human nNOS [3]
  Ki: 37 nM

## Nc1ccc2ccc(CCNCCCc3cccc(F)c3)cc2n1 [Compound 19, reference compound]
S. aureus UAMS1182
  H2O2-mediated killing of S. aureus on co-treatment: significantly increases the H2O2-mediated killing
  S. aureus survival, inhibitor alone: reduced bacterial survival over time
bBiDomain
  Ki: 69.7 nM
  % nitrite: 6.1%

## CNCCN(C)c1cc(C#N)cc(CCc2cc(C)cc(N)n2)c1 [Compound 19c, 3-(2-(6-Amino-4-methylpyridin-2-yl)ethyl)-5-(methyl(2-(methylamino)ethyl)amino)benzonitrile]
[8]; brain
  T1/2: 24.80 h
[8]; plasma
  T1/2: 1.1 h
[8]; p.o. 10 mg/kg, plasma
  AUCinf: 182.46 ng·h/mL

## Cc1cc(N)nc(CCc2cc(F)cc(N3CCNCC3)c2)c1 [Compound 23h, 6-(3-Fluoro-5-(piperazin-1-yl)phenethyl)-4-methylpyridin-2-amine]
Human nNOS [9]
  Ki: 161 nM
Rat nNOS [10]
  e/n: 82.8
  i/n: 60.2

## Cc1cc(N)nc(CCc2cc(F)cc(NC3CCNCC3)c2)c1 [Compound 23i, 6-(3-Fluoro-5-(piperidin-4-ylamino)phenethyl)-4-methylpyridin-2-amine]
Human nNOS [9]
  Ki: 384 nM
Rat nNOS [10]
  e/n: 40.2
  i/n: 110.9

## Cc1cc(N)nc(-c2ccc(CNCCc3cccc(F)c3)cc2)c1 [Compound 27, 6-(4-(((3-Fluorophenethyl)amino)methyl)phenyl)-4-methylpyridin-2-amine]
S. aureus UAMS1182
  H2O2-mediated killing of S. aureus on co-treatment: significantly increases the H2O2-mediated killing
  S. aureus survival, inhibitor alone: reduced bacterial survival over time
bBiDomain
  Ki: 502 nM
  % nitrite: 13.2%

## COCCCC/C(=N\OCCN)c1ccc(C(F)(F)F)cc1 [Fluvoxamine, reference compound]
CYP1A2; 10 μM
  % inhibition CYP1A2: 95%

## N=C(NCCC[C@H](N)C(=O)O)N[N+](=O)[O-] [L-NNA, N^ω-nitro-L-arginine]
bBiDomain
  % nitrite: 40.9±5.3%
B. subtilis; NOS inhibitor + ACR, 30 min
  % survival of wt B. subtilis with ACR: bacterial % survival decreased in the presence of ACR
B. subtilis; NOS inhibitor + H2O2, 30 min
  % survival of wt B. subtilis with H2O2: trivial effects on bacterial survival

## NC(=NCCC[C@H](N)C(=O)O)NO [NOHA, N-omega-hydroxy-L-arginine]
bsNOS
  fold difference in binding (KS) in presence vs absence of H4B: 1.2 fold

## O=c1c(O)c(-c2ccc(O)c(O)c2)oc2cc(O)cc(O)c12 [Quercetin]
CYP2C8 [11]
  % inhibition CYP2C8: 95%

## CNC(=C[N+](=O)[O-])NCCSCc1ccc(CN(C)C)o1 [Ranitidine]
Caco-2 cells; 10 μM, 2 h
  apparent permeability (Papp) mean A → B: 0.45 10^−6 cm s^−1
  apparent permeability (Papp) mean B → A: 1.2 10^−6 cm s^−1
Caco-2 cells; Papp (B→A)/Papp (A→B)
  efflux ratio: 2.7

## CC(=O)CC(c1ccccc1)c1c(O)c2ccccc2oc1=O (centres unmarked) [Warfarin, reference compound]
In vitro [4]; human plasma
  recovery at 4 h, 5 μM: 100%
[5]; human, plasma, 4 h, 5 μM
  % compound remaining at 4 h: 94%

## acriflavine
B. subtilis; single agent, 500 μM NOS inhibitor or 800 μM ACR
  bacterial growth, % of control: 23%
